# Measured values as given in patent publication US11053204B2, “Pyrimidinyloxy benzene derivatives as herbicides” (FMC Corporation, priority 2015, dated 2021).
# Key:
# Format in all cases: in vivo
# [1] = tested on: velvetleaf (Abutilon theophrasti); assay: Test C preemergence, plant response rating; conditions: Abutilon theophrasti, pre-emergence, Preemergence
# In short: (§1)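 Pre-emergence: seeds sown in loam soil–sand blend or silt loam and sprayed with test chemicals in a non-phytotoxic solvent mixture with surfactant. Post-emergence: plants 2 to 18 cm (1- to 4-leaf stage) in peat-based potting medium, same formulation. Greenhouse 13 to 15 d; visual rating 0 (no effect) to 100 (complete control) versus controls.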
# [2] = tested on: ryegrass, Italian (Italian ryegrass, Lolium multiflorum); assay: Test C preemergence, plant response rating; conditions: Lolium multiflorum, pre-emergence, Preemergence
# In short: as §1
# corn (Zea mays) = assay: Test C preemergence, plant response rating; conditions: Zea mays, pre-emergence, Preemergence
# In short: as §1
# [3] = tested on: oilseed rape (Brassica napus); assay: Test C preemergence, plant response rating; conditions: Brassica napus, pre-emergence, Preemergence
# In short: as §1
# [4] = tested on: foxtail, giant (giant foxtail, Setaria faberii); assay: Test C preemergence, plant response rating; conditions: Setaria faberi, pre-emergence, Preemergence
# In short: as §1
# [5] = tested on: lambsquarters (Chenopodium album); assay: Test C preemergence, plant response rating; conditions: Chenopodium album, pre-emergence, Preemergence
# In short: as §1
# soybean (Glycine max) = assay: Test C preemergence, plant response rating; conditions: Glycine max, pre-emergence, Preemergence
# In short: as §1
# [6] = tested on: ragweed (common ragweed, Ambrosia elatior); assay: Test C preemergence, plant response rating; conditions: Ambrosia artemisiifolia, pre-emergence, Preemergence
# In short: as §1
# [7] = tested on: nutsedge, yellow (yellow nutsedge, Cyperus esculentus); assay: Test C preemergence, plant response rating; conditions: Cyperus, pre-emergence, Preemergence
# In short: as §1
# [8] = tested on: waterhemp (common waterhemp, Amaranthus rudis); assay: Test C preemergence, plant response rating; conditions: Amaranthus tuberculatus, pre-emergence, Preemergence
# In short: as §1
# [9] = tested on: wheat (winter wheat, Triticum aestivum); assay: Test C preemergence, plant response rating; conditions: Triticum aestivum, pre-emergence, Preemergence
# In short: as §1
# [10] = tested on: crabgrass, large (large crabgrass, Digitaria sanguinalis); assay: Test C preemergence, plant response rating; conditions: Digitaria sanguinalis, pre-emergence, Preemergence
# In short: as §1
# [11] = tested on: morningglory (Ipomoea coccinea); assay: Test C preemergence, plant response rating; conditions: Ipomoea, pre-emergence, Preemergence
# In short: as §1
# [12] = tested on: blackgrass (Alopecurus myosuroides); assay: Test C preemergence, plant response rating; conditions: Alopecurus myosuroides, pre-emergence, Preemergence
# In short: as §1
# [13] = tested on: barnyardgrass (Echinochloa crus-galli); assay: Test B flooded paddy test, plant response rating; conditions: Echinochloa crus-galli, 312 h; 250 g ai/ha; Flood; scale of 0 to 100 where 0 is no effect and 100 is complete control; 13 to 15 days
# In short: (§2)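 Visual injury ratings against untreated controls, taken 13 to 15 days after compound was added to paddy water standing 3 cm above the soil.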
# [14] = tested on: sedge, umbrella (small-flower umbrella sedge, Cyperus difformis); assay: Test B flooded paddy test, plant response rating; conditions: Cyperus difformis, 312 h; 250 g ai/ha; Flood; scale of 0 to 100 where 0 is no effect and 100 is complete control; 13 to 15 days
# In short: as §2
# rice (Oryza sativa) = assay: Test B flooded paddy test, plant response rating; conditions: Oryza sativa, 312 h; 250 g ai/ha; Flood; scale of 0 to 100 where 0 is no effect and 100 is complete control; 13 to 15 days
# In short: as §2
# [15] = tested on: ducksalad (Heteranthera limosa); assay: Test B flooded paddy test, plant response rating; conditions: Heteranthera limosa, 312 h; 250 g ai/ha; Flood; scale of 0 to 100 where 0 is no effect and 100 is complete control; 13 to 15 days
# In short: as §2
# [16] = tested on: foxtail, giant (giant foxtail, Setaria faberii); assay: Test C postemergence, plant response rating; conditions: Setaria faberi, post-emergence
# In short: as §1
# [17] = tested on: chickweed (common chickweed, Stellaria media); assay: Test C postemergence, plant response rating; conditions: Stellaria media, post-emergence
# In short: as §1
# [18] = tested on: morningglory (Ipomoea coccinea); assay: Test C postemergence, plant response rating; conditions: Ipomoea, post-emergence
# In short: as §1
# [19] = 62 g ai/ha, scale 0 to 100 (0 no effect, 100 complete control)
# [20] = 125 g ai/ha, scale 0 to 100 (0 no effect, 100 complete control)
smiles,measurement,setting,value
"O=C(CCC(F)(F)F)c1c(Cl)cccc1Oc1ncc(Cl)cn1 [Compound 107, 1-[2-chloro-6-[(5-chloro-2-pyrimidinyl)oxy]phenyl]-4,4,4-trifluoro-1-butanone]",pest or weed control at 125 g/ha,"[1]; 125 g ai/ha, scale of 0 to 100",98%
same,pest or weed control at 31 g/ha,"[1]; 31 g ai/ha, scale 0 to 100",75%
same,pest or weed control at 62 g/ha,"[1]; 62 g ai/ha, scale 0 to 100",98%
same,pest or weed control at 125 g/ha,"[2]; 125 g ai/ha, scale of 0 to 100",90%
same,pest or weed control at 31 g/ha,"[2]; 31 g ai/ha, scale 0 to 100",35%
same,pest or weed control at 62 g/ha,"[2]; 62 g ai/ha, scale 0 to 100",70%
same,"Corn plant response rating (crop injury, 0 = no effect, 100 = complete kill) at 125 g/ha","corn (Zea mays); 125 g ai/ha, scale of 0 to 100",45%
same,"Corn plant response rating (crop injury, 0 = no effect, 100 = complete kill) at 16 g/ha","corn (Zea mays); 16 g ai/ha, scale 0 to 100",0%
same,"Corn plant response rating (crop injury, 0 = no effect, 100 = complete kill) at 31 g/ha","corn (Zea mays); 31 g ai/ha, scale 0 to 100",0%
same,"Corn plant response rating (crop injury, 0 = no effect, 100 = complete kill) at 62 g/ha","corn (Zea mays); 62 g ai/ha, scale 0 to 100",15%
same,plant injury at 125 g/ha,"[3]; 125 g ai/ha, scale of 0 to 100",98%
same,plant injury at 31 g/ha,"[3]; 31 g ai/ha, scale 0 to 100",40%
same,plant injury at 62 g/ha,"[3]; 62 g ai/ha, scale 0 to 100",85%
same,pest or weed control at 125 g/ha,"[4]; 125 g ai/ha, scale of 0 to 100",98%
same,pest or weed control at 31 g/ha,"[4]; 31 g ai/ha, scale 0 to 100",98%
same,pest or weed control at 62 g/ha,"[4]; 62 g ai/ha, scale 0 to 100",98%
same,pest or weed control at 125 g/ha,"[5]; 125 g ai/ha, scale of 0 to 100",95%
same,pest or weed control at 31 g/ha,"[5]; 31 g ai/ha, scale 0 to 100",75%
same,pest or weed control at 62 g/ha,"[5]; 62 g ai/ha, scale 0 to 100",85%
same,plant injury at 125 g/ha,"soybean (Glycine max); 125 g ai/ha, scale of 0 to 100",45%
same,plant injury at 31 g/ha,"soybean (Glycine max); 31 g ai/ha, scale 0 to 100",20%
same,plant injury at 62 g/ha,"soybean (Glycine max); 62 g ai/ha, scale 0 to 100",35%
same,pest or weed control at 125 g/ha,"[6]; 125 g ai/ha, scale of 0 to 100",50%
same,pest or weed control at 31 g/ha,"[6]; 31 g ai/ha, scale 0 to 100",30%
same,pest or weed control at 62 g/ha,"[6]; 62 g ai/ha, scale 0 to 100",50%
same,pest or weed control at 125 g/ha,"[7]; 125 g ai/ha, scale of 0 to 100",0%
same,pest or weed control at 31 g/ha,"[7]; 31 g ai/ha, scale 0 to 100",0%
same,pest or weed control at 62 g/ha,"[7]; 62 g ai/ha, scale 0 to 100",0%
same,pest or weed control at 125 g/ha,"[8]; 125 g ai/ha, scale of 0 to 100",100%
same,pest or weed control at 31 g/ha,"[8]; 31 g ai/ha, scale 0 to 100",98%
same,pest or weed control at 62 g/ha,"[8]; 62 g ai/ha, scale 0 to 100",100%
same,plant injury at 125 g/ha,"[9]; 125 g ai/ha, scale of 0 to 100",35%
same,plant injury at 31 g/ha,"[9]; 31 g ai/ha, scale 0 to 100",10%
same,plant injury at 62 g/ha,"[9]; 62 g ai/ha, scale 0 to 100",15%
same,pest or weed control at 125 g/ha,"[10]; 125 g ai/ha, scale of 0 to 100",100%
same,pest or weed control at 16 g/ha,"[10]; 16 g ai/ha, scale 0 to 100",98%
same,pest or weed control at 31 g/ha,"[10]; 31 g ai/ha, scale 0 to 100",98%
same,pest or weed control at 62 g/ha,"[10]; 62 g ai/ha, scale 0 to 100",100%
same,pest or weed control at 125 g/ha,"[11]; 125 g ai/ha, scale of 0 to 100",85%
same,pest or weed control at 31 g/ha,"[11]; 31 g ai/ha, scale 0 to 100",0%
same,pest or weed control at 62 g/ha,"[11]; 62 g ai/ha, scale 0 to 100",40%
same,pest or weed control at 125 g/ha,"[12]; 125 g ai/ha, scale of 0 to 100",90%
same,pest or weed control at 16 g/ha,"[12]; 16 g ai/ha, scale 0 to 100",60%
same,pest or weed control at 31 g/ha,"[12]; 31 g ai/ha, scale 0 to 100",90%
same,pest or weed control at 62 g/ha,"[12]; 62 g ai/ha, scale 0 to 100",90%
same,pest or weed control at 250 g/ha,[13],50%
same,pest or weed control at 250 g/ha,[14],95%
same,plant injury at 250 g/ha,rice (Oryza sativa),35%
same,pest or weed control at 250 g/ha,[15],95%
same,pest or weed control at 16 g/ha,"[16]; 16 g ai/ha, scale of 0 to 100",10%
same,pest or weed control at 31 g/ha,"[16]; 31 g ai/ha, scale 0 to 100",10%
same,pest or weed control at 62 g/ha,[16]; [19],20%
same,pest or weed control at 125 g/ha,[16]; [20],25%
same,pest or weed control at 16 g/ha,"[17]; 16 g ai/ha, scale of 0 to 100",80%
same,pest or weed control at 31 g/ha,"[17]; 31 g ai/ha, scale 0 to 100",90%
same,pest or weed control at 62 g/ha,[17]; [19],98%
same,pest or weed control at 125 g/ha,[17]; [20],100%
same,pest or weed control at 16 g/ha,"[18]; 16 g ai/ha, scale of 0 to 100",20%
same,pest or weed control at 31 g/ha,"[18]; 31 g ai/ha, scale 0 to 100",60%
same,pest or weed control at 62 g/ha,[18]; [19],80%
same,pest or weed control at 125 g/ha,[18]; [20],95%
